Experiments:
[1] = Evaluation of dissolved amount of infrared-absorbing coloring agent; assay type: physicochemical; conditions: 25° C., after stirring for 1 hour
Method: The infrared-absorbing coloring agent shown in the tables below was added to a measurement solvent shown in the tables below, while the temperature was adjusted to 25° C. under atmospheric pressure. After stirring for 1 hour, the dissolved amount of each infrared-absorbing coloring agent in the measurement solvent at 25° C. was determined. The dissolved amount of the infrared-absorbing coloring agent was evaluated based on the following standard. A case of A was judged to be a good solvent, and a case of B was judged to be a poor solvent. The infrared-absorbing coloring agent exists as particles in the poor solvent. PGMEA described in the column of measurement solvent in the following tables is an abbreviation for propylene glycol monomethyl ether acetate. • A: dissolved amount of the infrared-absorbing coloring agent in 100 g of the measurement solvent at 25° C. was 0.1 g or more. • B: dissolved amount of the infrared-absorbing coloring agent in 100 g of the measurement solvent at 25° C. was less than 0.1 g.

[2] = Maximal absorption wavelength of infrared-absorbing coloring agent in good solvent; assay type: physicochemical; conditions: coloring agent solution in dimethyl sulfoxide; for λmax: largest absorbance in 650 to 1500 nm; for Number of maximal absorption wavelengths: wavelength range 650 to 1500 nm
Method: Each infrared-absorbing coloring agent was dissolved in a solvent (good solvent) descried in the following table to prepare a coloring agent solution having a concentration of infrared-absorbing coloring agent of […], and absorption spectrum of the coloring agent solution was measured. The number of maximal absorption wavelengths existing in a wavelength range of 650 to 1500 nm and the wavelength (max) indicating the value having the largest absorbance are shown in the following table.

Structure (SMILES)	λmax [2]	Number of maximal absorption wavelengths [2]	Solubility ([1]; Cyclopentanone)	Solubility ([1]; Dimethyl sulfoxide)	Solubility ([1]; PGMEA)	Solubility ([1]; Water)
Cc1ccccc1-c1c2/c(=C(\C#N)c3ccc4ccccc4n3)n(B(c3ccccc3)c3ccccc3)c(-c3ccc(OCCO)cc3)c2/c(=C(\C#N)c2ccc3ccccc3n2)n1B(c1ccccc1)c1ccccc1 [Comparative coloring agent 1, reference compound]	819 nm	2	B (dissolved amount of the infrared-absorbing coloring agent in 100 g of the measurement solvent at 25 °C was less than 0.1 g)	A (dissolved amount of the infrared-absorbing coloring agent in 100 g of the measurement solvent at 25 °C was 0.1 g or more)	B (dissolved amount of the infrared-absorbing coloring agent in 100 g of the measurement solvent at 25 °C was less than 0.1 g)	B (dissolved amount of the infrared-absorbing coloring agent in 100 g of the measurement solvent at 25 °C was less than 0.1 g)
Cc1ccccc1-c1c2/c(=C(\C#N)c3ccc4ccccc4n3)n(B(c3ccccc3)c3ccccc3)c(-c3ccc(OCCCCS(=O)(=O)O)cc3)c2/c(=C(\C#N)c2ccc3ccccc3n2)n1B(c1ccccc1)c1ccccc1 [Example A-1]	819 nm	2	B (dissolved amount of the infrared-absorbing coloring agent in 100 g of the measurement solvent at 25 °C was less than 0.1 g)	A (dissolved amount of the infrared-absorbing coloring agent in 100 g of the measurement solvent at 25 °C was 0.1 g or more)	B (dissolved amount of the infrared-absorbing coloring agent in 100 g of the measurement solvent at 25 °C was less than 0.1 g)	B (dissolved amount of the infrared-absorbing coloring agent in 100 g of the measurement solvent at 25 °C was less than 0.1 g)
Cc1ccccc1-c1c2/c(=C(\C#N)c3nc4ccccc4s3)n(B(c3ccccc3)c3ccccc3)c(-c3ccc(OCCCN(C)C)cc3)c2/c(=C(\C#N)c2nc3ccccc3s2)n1B(c1ccccc1)c1ccccc1 [Example A-3]	780 nm	2	B (dissolved amount of the infrared-absorbing coloring agent in 100 g of the measurement solvent at 25 °C was less than 0.1 g)	A (dissolved amount of the infrared-absorbing coloring agent in 100 g of the measurement solvent at 25 °C was 0.1 g or more)	B (dissolved amount of the infrared-absorbing coloring agent in 100 g of the measurement solvent at 25 °C was less than 0.1 g)	B (dissolved amount of the infrared-absorbing coloring agent in 100 g of the measurement solvent at 25 °C was less than 0.1 g)
Cc1ccccc1-c1c2/c(=C(\C#N)c3nc4ccccc4s3)n(B(c3ccccc3)c3ccccc3)c(-c3ccc(OCCCCS(=O)(=O)O)cc3)c2/c(=C(\C#N)c2nc3ccccc3s2)n1B(c1ccccc1)c1ccccc1 [Example A-4]	779 nm	2	B (dissolved amount of the infrared-absorbing coloring agent in 100 g of the measurement solvent at 25 °C was less than 0.1 g)	A (dissolved amount of the infrared-absorbing coloring agent in 100 g of the measurement solvent at 25 °C was 0.1 g or more)	B (dissolved amount of the infrared-absorbing coloring agent in 100 g of the measurement solvent at 25 °C was less than 0.1 g)	B (dissolved amount of the infrared-absorbing coloring agent in 100 g of the measurement solvent at 25 °C was less than 0.1 g)

Now from value to compound, other results behind:

λmax [2]	Number of maximal absorption wavelengths [2]	Structure (SMILES)	Solubility ([1]; Cyclopentanone)	Solubility ([1]; Dimethyl sulfoxide)	Solubility ([1]; PGMEA)	Solubility ([1]; Water)
746 nm	2	Cc1ccccc1-c1c2/c(=C(\C#N)c3nc4ccc(Cl)cc4o3)n(B(c3ccccc3)c3ccccc3)c(-c3ccc(OCCCS(=O)(=O)O)cc3)c2/c(=C(\C#N)c2nc3ccc(Cl)cc3o2)n1B(c1ccccc1)c1ccccc1 [Example A-5]	B (dissolved amount of the infrared-absorbing coloring agent in 100 g of the measurement solvent at 25 °C was less than 0.1 g)	A (dissolved amount of the infrared-absorbing coloring agent in 100 g of the measurement solvent at 25 °C was 0.1 g or more)	B (dissolved amount of the infrared-absorbing coloring agent in 100 g of the measurement solvent at 25 °C was less than 0.1 g)	B (dissolved amount of the infrared-absorbing coloring agent in 100 g of the measurement solvent at 25 °C was less than 0.1 g)
801 nm	2	COc1ccc2nc(/C(C#N)=c3/c4c(-c5ccccc5C)n(B(c5ccccc5)c5ccccc5)/c(=C(/C#N)c5nc6ccc(OC)cc6s5)c4c(-c4ccc(OCCCCS(=O)(=O)O)cc4)n3B(c3ccccc3)c3ccccc3)sc2c1 [Example A-6]	B (dissolved amount of the infrared-absorbing coloring agent in 100 g of the measurement solvent at 25 °C was less than 0.1 g)	A (dissolved amount of the infrared-absorbing coloring agent in 100 g of the measurement solvent at 25 °C was 0.1 g or more)	B (dissolved amount of the infrared-absorbing coloring agent in 100 g of the measurement solvent at 25 °C was less than 0.1 g)	B (dissolved amount of the infrared-absorbing coloring agent in 100 g of the measurement solvent at 25 °C was less than 0.1 g)
747 nm	2	Cc1ccccc1-c1c2/c(=C(\C#N)c3nc4ccc(Br)cc4o3)n(B(c3ccccc3)c3ccccc3)c(-c3ccc(OCCCS(=O)(=O)O)cc3)c2/c(=C(\C#N)c2nc3ccc(Br)cc3o2)n1B(c1ccccc1)c1ccccc1 [Example A-7]	B (dissolved amount of the infrared-absorbing coloring agent in 100 g of the measurement solvent at 25 °C was less than 0.1 g)	A (dissolved amount of the infrared-absorbing coloring agent in 100 g of the measurement solvent at 25 °C was 0.1 g or more)	B (dissolved amount of the infrared-absorbing coloring agent in 100 g of the measurement solvent at 25 °C was less than 0.1 g)	B (dissolved amount of the infrared-absorbing coloring agent in 100 g of the measurement solvent at 25 °C was less than 0.1 g)
